Four molecules from paper PMC6803673, “Molecular features of the UNC-45 chaperone critical for binding and folding muscle myosin” (Nature Communications, 2019) can be followed below.

The target in data set [1] is T1, MHC-B (myosin II heavy chain isoform B, UNC-54) motor domain (Caenorhabditis elegans, UniProt P02566).
T1 construct: motor domain, residues 1-790, C-terminal His6-tag, co-expressed with C. elegans UNC-45 in High Five insect cells, monomeric
T1 sequence (P02566 1-790): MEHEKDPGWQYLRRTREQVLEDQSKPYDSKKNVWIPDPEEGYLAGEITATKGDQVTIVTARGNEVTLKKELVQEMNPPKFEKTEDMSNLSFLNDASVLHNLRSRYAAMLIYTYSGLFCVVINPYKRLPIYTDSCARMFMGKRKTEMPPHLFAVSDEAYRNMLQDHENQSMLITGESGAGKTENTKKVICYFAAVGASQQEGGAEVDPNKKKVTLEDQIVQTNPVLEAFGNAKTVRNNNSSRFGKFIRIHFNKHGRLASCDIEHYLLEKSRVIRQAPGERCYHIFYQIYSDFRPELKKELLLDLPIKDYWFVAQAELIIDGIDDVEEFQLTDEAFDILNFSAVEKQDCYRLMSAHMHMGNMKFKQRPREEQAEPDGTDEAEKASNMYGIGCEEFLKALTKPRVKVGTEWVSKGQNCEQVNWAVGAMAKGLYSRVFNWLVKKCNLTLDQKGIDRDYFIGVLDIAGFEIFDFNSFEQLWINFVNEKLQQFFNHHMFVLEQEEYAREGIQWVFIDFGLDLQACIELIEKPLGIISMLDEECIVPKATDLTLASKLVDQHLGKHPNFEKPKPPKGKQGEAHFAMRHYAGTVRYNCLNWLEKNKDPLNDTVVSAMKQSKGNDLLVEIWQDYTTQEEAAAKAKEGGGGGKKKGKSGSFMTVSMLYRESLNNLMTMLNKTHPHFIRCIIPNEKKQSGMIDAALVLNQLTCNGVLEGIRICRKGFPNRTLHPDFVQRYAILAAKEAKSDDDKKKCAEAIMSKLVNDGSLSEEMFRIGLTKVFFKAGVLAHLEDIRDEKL
Put plainly: X-ray crystal structure, […] A. The settings on record: nucleotide-binding pocket of the motor domain; crystals pH 6.5, 4 °C.

Data set [2] addresses T1, MHC-B (myosin II heavy chain isoform B, UNC-54) motor domain. Put plainly: stopped-flow single turnover, intrinsic tryptophan fluorescence. The class given is biochemical. The settings on record: no actin; 20 mM MOPS pH 7.0, 25 mM KCl, 5 mM MgCl2, 20 °C.
The target of data set [3] is T2, UNC-45 wild type (bacterial) (C. elegans, UniProt G5EG62 1-961).
T2 construct: UNC-45, C. elegans myosin chaperone, wild type; also called wt UNC-45; wt chaperone; source: E. coli BL21(RIL), purified (NiNTA, anion exchange, SEC)
T2 sequence: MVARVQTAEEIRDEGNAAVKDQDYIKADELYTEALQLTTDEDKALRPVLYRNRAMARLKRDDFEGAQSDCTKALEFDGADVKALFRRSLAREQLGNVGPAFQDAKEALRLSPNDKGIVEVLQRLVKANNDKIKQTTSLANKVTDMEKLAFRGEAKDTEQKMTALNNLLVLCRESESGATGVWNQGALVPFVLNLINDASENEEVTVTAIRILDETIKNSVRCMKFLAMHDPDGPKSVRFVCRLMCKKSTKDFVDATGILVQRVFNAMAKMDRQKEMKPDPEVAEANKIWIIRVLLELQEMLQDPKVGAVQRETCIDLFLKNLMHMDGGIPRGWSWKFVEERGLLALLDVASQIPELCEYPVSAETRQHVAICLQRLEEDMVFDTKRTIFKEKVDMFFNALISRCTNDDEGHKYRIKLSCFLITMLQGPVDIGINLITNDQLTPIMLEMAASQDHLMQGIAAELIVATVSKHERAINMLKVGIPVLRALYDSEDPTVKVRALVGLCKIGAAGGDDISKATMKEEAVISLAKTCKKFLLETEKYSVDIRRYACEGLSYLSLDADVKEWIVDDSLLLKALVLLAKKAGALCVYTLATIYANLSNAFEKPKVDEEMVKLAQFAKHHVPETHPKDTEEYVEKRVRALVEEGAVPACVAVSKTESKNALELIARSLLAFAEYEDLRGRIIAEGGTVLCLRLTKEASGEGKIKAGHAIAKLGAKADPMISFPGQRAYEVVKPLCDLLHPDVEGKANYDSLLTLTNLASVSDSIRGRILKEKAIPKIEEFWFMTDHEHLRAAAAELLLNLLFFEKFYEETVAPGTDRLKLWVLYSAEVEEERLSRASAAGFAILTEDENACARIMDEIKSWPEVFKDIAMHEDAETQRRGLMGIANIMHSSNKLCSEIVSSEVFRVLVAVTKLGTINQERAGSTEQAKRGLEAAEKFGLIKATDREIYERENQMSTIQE
Kind of data set: SEC; myosin incubated at 27 °C for 60 min, then with UNC-45 (wild-type or ts-mutant) on ice for 60 min; S200 PC 3.2 column, 20 mM Tris pH 8.0, 150 mM NaCl. The settings on record: both partners purified.

Data set [4] deals with the molecule itself. Put plainly: crystal structure; UNC-45 mutant crystals grown by sitting drop vapor diffusion at 19 °C.

Residue numbers refer to the chain shown, from its start. Names may count otherwise.

On to `Nc1ncnc2c1ncn2[C@@H]1O[C@H](COP(=O)(O)OP(=O)(O)O)[C@@H](O)[C@H]1O` [ADP], for which, in data set [1], the “X-ray crystal structure, 1.9 A” value was “we crystallized MHC-B and determined the structure of the ADP-bound state”.
On to `Nc1ncnc2c1ncn2[C@@H]1O[C@H](COP(=O)(O)OP(=O)(O)OP(=O)(O)O)[C@@H](O)[C@H]1O` [ATP], for which, in data set [2], the “stopped-flow single turnover, intrinsic tryptophan fluorescence” value is recorded as “Upon ATP binding to the myosin motor domain Trp fluorescence is enhanced”.

B1: MHC-B muscle myosin motor domain (residues 1–790) (domain or fragment, C. elegans, UniProt P02566 1-790, looked up)
chain: T1 sequence (P02566 1-790)
notes: C. elegans body wall muscle myosin II heavy chain isoform B (MHC-B, UNC-54), motor domain, residues 1-790, cloned from C. elegans cDNA; In the SEC assays with UNC-45 the protein was heat-damaged (unfolded or misfolded) at 27 °C; Two vectors (pFastBac DUAL, pACEBac1) encode the same 1-790 His6 protein; also called myosin II heavy chain isoform B; UNC-54; source: High Five insect cells, …
As to B1, in data set [3], the binding result is “binds”.

B2: UNC-45 G427E (ts mutant, bacterial) (natural protein, C. elegans, UniProt G5EG62 1-961, looked up)
chain: T2 sequence with G427E
notes: UNC-45, C. elegans, temperature-sensitive point mutant G427E; the SEC assays used the native protein; also called tsG427E; source: E. coli BL21(RIL), purified (NiNTA, anion exchange, SEC); SeMet protein from B834-DE3 cells
Turning to B2, the binding result in data set [4] was “binds”.
